Format in all cases: physicochemical
Data set [1] can be described thus: Solid-state stability assessment on storage (XRPD and HPLC purity). On the procedure:
Approximate 10 mg of Type A sample was added into each 1.5-mL glass vial and stored at 80° C. (closed) for 1 day, 25° C./60% RH and 40° C./75% RH (open) for 1 week, then tested by XRPD and HPLC purity. Approximate 4 mg of Type B sample was added into each 1.5-mL glass vial and stored at 80° C. (closed) for 1 day, 25° C./60% RH and 40° C./75% RH (open) for 1 week, then tested by XRPD and HPLC purity. Approximate 4 mg of Type D sample was added into each 1.5-mL glass vial and stored at 25° C./60% RH and 40° C./75% RH (open) for 1 week, then tested by XRPD and HPLC purity. Approximate 7 mg of Type F sample was added into each 1.5-mL glass vial and stored at 80° C. (closed) for 1 day, 25° C./60% RH and 40° C./75% RH (open) for 1 week, then tested by XRPD and HPLC purity.

Assay in data set [2]: as above
The note with it: 92.5% RH for about 17 days.

Data set [3] can be described thus: Hygroscopicity assessment by dynamic vapor sorption (DVS). The following applies: for hygroscopicity class: Chinese Pharmacopeia 2010 definition; for hygroscopicity class / water uptake: 25° C., 80% RH; for form change after DVS test: XRPD before and after DVS test. The procedure:
XRPD studies was performed using a Panalytical Empyrean X-ray powder diffractometer. The parameters of the X-ray powder diffraction of the present disclosure are as follows: • X-ray Reflection: Cu, Kα • Kα1 (Å): 1.540598; Kα2 (Å): 1.544426 • Kα2/Kα1 intensity ratio: 0.50 • Voltage: 45 (kV) • Current: 40 (mA) • Scanning range: from 3.0 degree to 40.0 degree • DSC data in the present disclosure were acquired by a TA Q2000. The parameters of the DSC method of the present disclosure were as follows: • Heating rate: 10° C./min • Purge gas: nitrogen • TGA data in the present disclosure are acquired by a TA Q5000. The parameters of the TGA method of the present disclosure were as follow: • Heating rate: 10° C./min • Purge gas: nitrogen • Dynamic vapor sorption (DVS) data in the present disclosure were acquired by a SMS (Surface Measurement Systems) DVS Intrinsic. The parameters of the dynamic vapor sorption (DVS) method of the present disclosure were as follows: • Temperature: 25° C. • Gas and flow rate: nitrogen, 200 mL/min • dm/dt: 0.002%/min • RH range: 0% RH-95% RH Approximate 10 mg of Type B sample in the present disclosure was assessed by hygroscopicity using a dynamic vapor sorption (DVS) instrument, and tested by XRPD before and after DVS test.

Data set [4] can be described thus: Interconversion of crystal forms via heating and slurry competition experiments. The following applies: for form after slurry competition: slurry in various solvent systems. An excerpt: Relationships among Type A-F crystal forms were investigated via heating and slurry competition experiments.
A short description of data set [5]: Equilibrium solubility in water at room temperature for 24 hours. The following applies: for Form Change: residual solids by XRPD after 24 hours in water at room temperature; for pH: solubility test in water, 24 hours; for pH / Solubility: room temperature; for Solubility: water, 24 hours equilibrium. On the procedure:
10 mg of Type A, B, D, and F samples each was added into a 1.5-mL glass vial, and 1.0 mL of water was then added. The mixture was rolled at 25 rpm at room temperature for 24 hours. The suspension was centrifuged and filtered to isolate the supernatant for HPLC concentration and purity testing and the residual solids were characterized by XRPD.

Setting [6] is: 25° C./60% RH and 40° C./75% RH (open) 1 week.
[7] abbreviates: 80° C. (closed) 1 day and 25° C./60% RH, 40° C./75% RH (open) 1 week.
[8] abbreviates: ACN, EtOH, MeOH/H2O (1:1, v/v) and H2O from RT to 50/70° C.

≈ marks a conversion by molar mass, not a printed value. Entries after “also recorded” stand apart in the source; their conditions may differ.

The text below walks through data of US11945792B2, “Crystalline forms of 6-(1-acryloylpiperidin-4-yl)-2-(4-phenoxyphenyl)nicotinamide” (BEIJING INNOCARE PHARMA TECH CO., LTD., priority 2018, dated 2024).

Regarding `C=CC(=O)N1CCC(c2ccc(C(N)=O)c(-c3ccc(Oc4ccccc4)cc3)n2)CC1` [Type A, 6-(1-acryloylpiperidin-4-yl)-2-(4-phenoxyphenyl)nicotinamide], the Purity/initial purity turned out to be 100.0% in data set [1] (25° C./60% RH (open)/1 week), 100.1% in data set [1] (40° C./75% RH (open)/1 week) and 100.0% in data set [1] (80° C. (closed)/1 day). Also, the “stability of the form after storage” value in data set [1] (setting [6]) was “relatively good physical and chemical stability”; in data set [1] (setting [7]) it was “did not change; also recorded: stable”. For the same compound, in data set [1] (setting [7]), the “change in purity after storage” value is “no decrease in purity”. Further, in data set [2], the crystallinity after storage entry is given as “decreased”. Further, in data set [3] (DVS), the hygroscopicity class result is given as “hygroscopic”. The form after slurry result in data set [4] (setting [8]) is given as “converted to Type F”. For the same compound, the “form after slurry competition” value in data set [4] is “converted into anhydrate Type F”. Further, the “Form Change” value in data set [5] was “Yes, to Type B”. The pH in data set [5] was 7.4.

What is called Solubility is the dissolved amount per volume that the medium holds. Read a low Solubility as little dissolved substance. Regarding `C=CC(=O)N1CCC(c2ccc(C(N)=O)c(-c3ccc(Oc4ccccc4)cc3)n2)CC1` [Type B, 6-(1-acryloylpiperidin-4-yl)-2-(4-phenoxyphenyl)nicotinamide], in data set [1] (25° C./60% RH (open)/1 week), the Purity/initial purity came to 99.5%. The compound further gave a Purity/initial purity in data set [1] (40° C./75% RH (open)/1 week) of 99.7%. In data set [1] (setting [7]), the “change in purity after storage” value is recorded as “no decrease in purity” and the “stability of the form after storage” value is “did not change; also recorded: stable”. This compound registered a Purity/initial purity in data set [1] (80° C. (closed)/1 day) of 99.7%. Besides, in data set [3] (DVS), the water uptake was 0.5% and the hygroscopicity class result is reported as “slightly hygroscopic”. Also, in data set [3], the “form change after DVS test” value was “did not change; also recorded: no form change”. The form after slurry result in data set [4] (setting [8]) is “converted to Type F”. Further, the “form after slurry competition” value in data set [4] is listed as “converted into anhydrate Type F”. In addition, in data set [5], the “Form Change” value is “No”, the pH was 7.7 and the Solubility amounted to 6 µg/mL (≈ 14 µM).

As to `C=CC(=O)N1CCC(c2ccc(C(N)=O)c(-c3ccc(Oc4ccccc4)cc3)n2)CC1` [Type C, 6-(1-acryloylpiperidin-4-yl)-2-(4-phenoxyphenyl)nicotinamide], the form after slurry entry in data set [4] (H2O at 50° C. for about 21 days) was “convert to anhydrate Type B”.

In turn, `C=CC(=O)N1CCC(c2ccc(C(N)=O)c(-c3ccc(Oc4ccccc4)cc3)n2)CC1` [Type D, 6-(1-acryloylpiperidin-4-yl)-2-(4-phenoxyphenyl)nicotinamide] gave a Purity/initial purity in data set [1] (25° C./60% RH (open)/1 week) of 99.9%. Also, in data set [1] (setting [6]), the “change in purity after storage” value is “no significant decrease in purity” and the “stability of the form after storage” value is listed as “did not change; also recorded: stable”. In data set [1] (40° C./75% RH (open)/1 week), this compound showed a Purity/initial purity of 99.9%. In data set [1] (80° C. (closed)/1 day, XRPD), the Final form result is “converted to a mixture of Type B and D; also recorded: converted to the mixture of Type B and D”. Besides, in data set [3] (DVS), the “DVS finding” value is recorded as “relative stable hydrate”. Besides, the form after slurry entry in data set [4] (MeOH/H2O (aw~0.5) and EtOH/H2O (aw=0~1) at RT) is “converted to anhydrate Type F”. For the same compound, the form after dehydration entry in data set [4] (dehydration at elevated temperature) was “converted to anhydrate Type E”. Besides, in data set [4], the “form after slurry competition” value is “converted into anhydrate Type F”. Further, in data set [5], the “Form Change” value is given as “No”, the pH came to 8.0 and the Solubility amounted to 18 µg/mL (≈ 42.1 µM).

In the case of `C=CC(=O)N1CCC(c2ccc(C(N)=O)c(-c3ccc(Oc4ccccc4)cc3)n2)CC1` [Type F, 6-(1-acryloylpiperidin-4-yl)-2-(4-phenoxyphenyl)nicotinamide], in data set [1] (25° C./60% RH (open)/1 week), the Purity/initial purity amounted to 100.0%. Further, the “stability of the form after storage” value in data set [1] (setting [6]) was “relatively good physical and chemical stability”. Besides, in data set [1] (40° C./75% RH (open)/1 week), the Purity/initial purity is on record as 100.0%. In data set [1] (setting [7]), the “change in purity after storage” value is given as “no decrease in purity” and the “stability of the form after storage” value is given as “did not change; also recorded: stable”. Besides, the Purity/initial purity in data set [1] (80° C. (closed)/1 day) was determined as 100.0%. For the same compound, in data set [3] (DVS), the water uptake came out at 1.2% and the hygroscopicity class result is “slightly hygroscopic”. For the same compound, in data set [3], the “form change after DVS test” value was “did not change; also recorded: no form change”. Also, the relative thermodynamic stability result in data set [4] (between RT and 50/70° C.) was “thermodynamically more stable form than Type A/B/D; also recorded: more stable anhydrous form among Type A/B/D/F”. In data set [5], the “Form Change” value is “No” and the pH is on record as 6.9.
